The source of these data is ChEMBL document CHEMBL1201862, “PubChem BioAssay data set” (2004).

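Grown in 96-well plates, cells were treated for 48 hours with each compound at five concentrations. Insufficient inhibition: endpoint recorded as highest concentration tested. GI50: concentration for 50% inhibition of growth.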 The source made the active and inactive calls. No stated cut-off is given here; in the data, active = GI50 up to about 1.1 µM and inactive = higher.

Test systems include DMS-273; HOP-18; KM-20L2; DMS-114; DLD-1; XF498; M19-MEL; SNB-78; RXF 631.
Common to all, as to test: DTP human tumour cell line panel, 48 h

The GI50 is the concentration giving 50% growth inhibition. For the compound `OC(c1ccccc1)(c1ccccc1)c1ccncc1`, the GI50 with DMS-273, with HOP-18, in the assay on KM-20L2, in the assay on DMS-114, in the assay with DLD-1 and with XF498 was > 100 µM (inactive) throughout. Besides, the GI50 in the assay on M19-MEL and with SNB-78 was > 100 µM (inactive) throughout.

As to `Nc1ccccc1C(=O)NC(=O)Nc1ccc(Oc2ncc(Br)cn2)c(Cl)c1`, the GI50 in the assay on HOP-18 is 13 µM (inactive); in the assay on KM-20L2, < 0.01 µM (active); in the assay with DMS-114 it was < 0.01 µM (active); in the assay on DLD-1, < 0.01 µM (active); in the assay on M19-MEL, < 0.01 µM (active); in the assay with SNB-78, < 0.12 µM (active).

With `N#Cc1nc(Nc2cccc3ccccc23)sc1N`, the GI50 with DMS-273 was 36.8 µM (inactive); in the assay with KM-20L2 it was 43.2 µM (inactive); with DLD-1, 48.4 µM (inactive); in the assay on XF498 it was 20.3 µM (inactive); in the assay with M19-MEL it was 28.5 µM (inactive); in the assay with SNB-78, 13 µM (inactive).

`CC(=O)NC(CCCNC(=O)NCCCl)C(=O)NCc1ccccc1` (centres undefined): the GI50 in the assay with DMS-273, with HOP-18, in the assay on RXF 631, with KM-20L2, in the assay with DMS-114 and in the assay with M19-MEL was > 100 µM (inactive) throughout.

For `CN1C/C(=C\C=C\c2ccccc2)C(=O)/C(=C/C=C/c2ccccc2)C1`, the GI50 in the assay with DMS-273, with RXF 631, in the assay on KM-20L2, in the assay with DMS-114, in the assay on DLD-1 and in the assay on XF498 was > 100 µM (inactive) throughout. Also, the GI50 with M19-MEL and in the assay on SNB-78 was > 100 µM (inactive) throughout.

On to `CCc1cccc(C)c1NS(=O)(=O)c1ccccc1`, for which the GI50 in the assay on DMS-273, with RXF 631, with KM-20L2, in the assay on DMS-114, with DLD-1 and in the assay with XF498 was > 100 µM (inactive) throughout. The GI50 in the assay with M19-MEL and in the assay on SNB-78 was > 100 µM (inactive) each time.

For the compound `C/C(=N\NC(C)(C)C)c1sc(-c2nc(C)c(/C(C)=N/NC(C)(C)C)s2)nc1C`, the GI50 in the assay on DMS-273, in the assay on HOP-18, with RXF 631, with KM-20L2, with DMS-114 and with DLD-1 was > 100 µM (inactive) throughout. In addition, the GI50 with M19-MEL and with SNB-78 was > 100 µM (inactive) each time.

On to `CCOP(=O)(OCC)/C(C#N)=C/c1ccc[nH]1`, for which the GI50 in the assay with DMS-273, in the assay on HOP-18, with KM-20L2, in the assay with DMS-114, in the assay on DLD-1 and in the assay with M19-MEL was > 100 µM (inactive) each time. In the assay on SNB-78, the GI50 is > 100 µM (inactive).

Consider `Cc1ccc(SC2C(C)(C)N(C(C)C)P2(=O)N(C(C)C)C(C)C)cc1` (centres undefined), for which the GI50 was 13.4 µM (inactive) in the assay with DMS-273; > 100 µM (inactive) in the assay with HOP-18; 34 µM (inactive) in the assay on KM-20L2; 26.7 µM (inactive) in the assay on M19-MEL; > 68.5 µM (inactive) in the assay with SNB-78.

In the case of `CN(c1ccccc1)C1C(=O)N(c2ccccc2)C1/C=C/c1ccccc1` (centres undefined), the GI50 with DMS-273, in the assay with DLD-1, in the assay on M19-MEL and in the assay with SNB-78 was > 100 µM (inactive) each time.

For the compound `CC(=O)ON(C(C)=O)C1C(COC(c2ccccc2)(c2ccccc2)c2ccccc2)OC2OC3(CCCC3)OC21` (centres undefined), the GI50 was 3.57 µM (inactive) in the assay on DMS-273; 49.3 µM (inactive) in the assay with HOP-18; 5.19 µM (inactive) with KM-20L2; 5.5 µM (inactive) in the assay on DMS-114; 5.32 µM (inactive) in the assay with DLD-1; 5.19 µM (inactive) in the assay on XF498. Besides, in the assay on M19-MEL, the GI50 was 6.62 µM (inactive).

In the case of `CN(C)CN(C)c1nc(N(C)C)nc(N(C)C)n1`, the GI50 is > 100 µM (inactive) in the assay with DMS-273; > 100 µM (inactive) in the assay with HOP-18; > 100 µM (inactive) with KM-20L2; 90.2 µM (inactive) in the assay on DMS-114; > 100 µM (inactive) in the assay on DLD-1; > 100 µM (inactive) in the assay on XF498. Further, the GI50 in the assay with M19-MEL and in the assay on SNB-78 was > 100 µM (inactive) throughout.

On to `CCOC(C[C@H](O)[C@H]1COC(=S)S1)OCC`, for which the GI50 in the assay with DMS-273, in the assay on KM-20L2, in the assay with DMS-114, in the assay with XF498 and in the assay with M19-MEL was > 100 µM (inactive) in each case.

As for `O=C(c1ccccc1)[C@H]1Nc2ccc(Cl)cc2C2c3ccccc3CC21` (some centres undefined), the GI50 is 66.8 µM (inactive) in the assay with DMS-273; 27.8 µM (inactive) in the assay on RXF 631; > 100 µM (inactive) with KM-20L2; 69.3 µM (inactive) with DMS-114; > 100 µM (inactive) in the assay with DLD-1; 21.5 µM (inactive) with XF498. The figures for the GI50 in the assay on M19-MEL and with SNB-78 were 71.4 µM (inactive) and > 100 µM (inactive), respectively.

Consider `N#Cc1ccc(/C=N\N2C(=O)c3ccccc3C2=O)cc1`, for which the GI50 in the assay with DMS-273, in the assay on HOP-18, in the assay with KM-20L2, with DMS-114, in the assay on DLD-1 and in the assay with XF498 was > 100 µM (inactive) throughout. Further, the GI50 in the assay with M19-MEL and in the assay with SNB-78 was > 100 µM (inactive) each time.

With `N#Cc1ccc(Sc2ccccc2)cc1C#N`, the GI50 in the assay with DMS-273 was 19.1 µM (inactive); in the assay on HOP-18 it was 50.6 µM (inactive); in the assay on RXF 631, 30.9 µM (inactive); in the assay with KM-20L2 it was 75.3 µM (inactive); in the assay with DLD-1, 34 µM (inactive); with XF498 it was 23.1 µM (inactive). Besides, the GI50 in the assay on M19-MEL is > 100 µM (inactive).

Regarding `C/C(=N/N)c1sc(-c2nc(C)c(/C(C)=N\N)s2)nc1C`, the GI50 with DMS-273 is > 41.3 µM (inactive); with HOP-18 it was > 67.1 µM (inactive); in the assay on KM-20L2, > 100 µM (inactive); in the assay with DMS-114, > 46.7 µM (inactive); in the assay on DLD-1, > 67.9 µM (inactive); in the assay on XF498 it was 38.2 µM (inactive). In addition, the GI50 in the assay with M19-MEL and in the assay on SNB-78 was > 100 µM (inactive) each time.

For `O=C1C=C(Nc2ccccc2C(=O)CC(=O)C(=O)Nc2ccc(Cl)cc2)c2ccccc2C1=O`, the GI50 was 13.8 µM (inactive) in the assay on DMS-273; 0.594 µM (active) in the assay on HOP-18; 30 µM (inactive) in the assay with RXF 631; > 55.2 µM (inactive) in the assay on KM-20L2; 3.64 µM (inactive) in the assay with DMS-114; 5.56 µM (inactive) in the assay on DLD-1. Further, the results for the GI50 with XF498, in the assay with M19-MEL and in the assay on SNB-78 were 13.7 µM (inactive), 1.95 µM (inactive) and 6.37 µM (inactive), respectively.

`COc1cc2ccnc3c(=C(SC)SC)c(=O)c(c1OC)c23`: the GI50 in the assay on DMS-273 is 13.8 µM (inactive); with HOP-18, 13.3 µM (inactive); in the assay with RXF 631, 14.8 µM (inactive); in the assay on KM-20L2, 15.7 µM (inactive); in the assay on DMS-114, 17.3 µM (inactive); with DLD-1, 13.9 µM (inactive). Besides, the GI50 in the assay with M19-MEL is 16 µM (inactive).

Take `Cc1cc(C)c(/C=N/NS(=O)(=O)c2ccccc2)c(C)c1`: the GI50 with DMS-273 was > 100 µM (inactive); in the assay on HOP-18, 59 µM (inactive); in the assay with RXF 631 it was > 100 µM (inactive); with KM-20L2, > 100 µM (inactive); in the assay on DMS-114 it was 60.4 µM (inactive); with DLD-1, 91.8 µM (inactive). The GI50 in the assay with M19-MEL and in the assay on SNB-78 was > 100 µM (inactive) each time.

In the case of `COc1cc(=O)oc(/C=C/CO)c1C`, the GI50 with DMS-273, in the assay on HOP-18, in the assay on RXF 631, in the assay on KM-20L2, in the assay on DMS-114 and with DLD-1 was > 100 µM (inactive) each time. Besides, the GI50 with XF498 and in the assay on M19-MEL was > 100 µM (inactive) in each case.

Consider `O=S(O)CCCCSSCc1ccccc1CSSCCCCS(=O)O`, for which the GI50 is 21.1 µM (inactive) in the assay with DMS-273; 14.7 µM (inactive) with HOP-18; 23.1 µM (inactive) with RXF 631; 61 µM (inactive) in the assay with KM-20L2; 14.9 µM (inactive) in the assay on DMS-114; 24.6 µM (inactive) in the assay with DLD-1. The GI50 with XF498 is 12 µM (inactive); in the assay with M19-MEL it was 4.65 µM (inactive).

Turning to `C=C[C@@]1(C)CCC2(O)C(CCC3C2(C)CCC[C@@]3(C)COC(=O)CC(=O)OC)C1` (some centres undefined), the GI50 is 19.1 µM (inactive) in the assay with RXF 631; 18.7 µM (inactive) in the assay on KM-20L2; 17.4 µM (inactive) in the assay with DLD-1; 21.6 µM (inactive) with XF498; 26.1 µM (inactive) in the assay on SNB-78.

For `CCOC(=O)Oc1cc2c(c(OC)c1OC)-c1ccc(OC)c(=O)cc1C(NC(C)=O)CC2` (centres undefined), the GI50 is < 0.01 µM (active) in the assay with DMS-273; 0.0565 µM (active) in the assay on RXF 631; 0.0416 µM (active) in the assay on KM-20L2; 0.0137 µM (active) in the assay with DMS-114; 0.0432 µM (active) with XF498; < 0.0164 µM (active) in the assay on M19-MEL. The GI50 in the assay with SNB-78 was 0.0156 µM (active).

As to `COc1ccc(C2Oc3cc(OC)c(O)c(C)c3[C@H]2C)cc1` (some centres undefined), the GI50 with DMS-273 was 73.3 µM (inactive); in the assay with HOP-18 it was 19 µM (inactive); in the assay with KM-20L2, > 100 µM (inactive); in the assay with DMS-114 it was 58.7 µM (inactive); with DLD-1, > 100 µM (inactive); in the assay with M19-MEL, > 100 µM (inactive). For the same compound, the GI50 in the assay with SNB-78 is > 100 µM (inactive).

Consider `C[C@]12C=CC(=O)C=C1CC[C@@H]1[C@@H]2CC[C@]2(C)OC(=O)CC[C@@H]12` [TESTOLACTONE], for which the GI50 was > 490 µM (inactive) in the assay with DMS-273; 98.4 µM (inactive) in the assay on HOP-18; > 472 µM (inactive) in the assay with RXF 631; 456 µM (inactive) with KM-20L2; 376 µM (inactive) with DMS-114; > 500 µM (inactive) in the assay with DLD-1. Further, the figures for the GI50 with XF498 and in the assay on SNB-78 were 245 µM (inactive) and 460 µM (inactive), respectively.
